Legend:
[1] = system: KeratinoSens cell line (Luciferase gene under the control of the ARE-element of the gene AKR1C2); experiment: KeratinoSens assay for skin sensitization: luciferase gene induction; type: cell-based; settings: for Concentration for 1.5-fold gene induction (EC 1.5 in μM) / Imax (fold maximal gene induction): 48 h incubation, 0.98 to 2000 μM; for Imax (fold maximal gene induction): threshold 1.5-fold; for rating of skin sensitization by the KeratinoSens assay: result in words
Protocol: Compounds were tested using the commercial KeratinoSens™ assay for skin sensitization.
(§1) The KeratinoSens™ test compares the potential skin sensitization risk of chemicals. The KeratinoSens™ cell line contains a stable insertion of a Luciferase gene under the control of the ARE-element of the gene AKR1C2 and induction of luciferase is indicative of skin sensitization potential (R. Emter, G. Ellis, A. Natsch, Toxicol. Appl. Pharmacol. 2010, 245, 281-290). The assay was performed as described by the OECD test guideline 442d. KeratinoSens cells were grown for 24 h in 96-well plates. The medium was then replaced with medium containing the test chemical and the solvent dimethylsulfoxide (DMSO) at a final level of 1%. Each compound was tested at 12 binary dilutions in the range from 0.98 to 2000 μM. Cells were incubated for 48 h with the test agents, and then luciferase activity and cytotoxicity were determined. This full procedure was repeated three times for each chemical. For each chemical in each repetition and at each concentration, the gene induction compared to DMSO controls and the wells with statistically significant induction over the threshold of 1.5 (i.e. 50% enhanced gene activity) were determined. Furthermore, the maximal fold-induction (Imax) and the EC1.5 value (concentration in μM for induction above the threshold) were calculated. Chemicals are rated as positive (i.e. likely skin-sensitizers) in the assay if the following three criteria are fulfilled:
(i) EC1.5 value is below 1000 μM.
(ii) At the lowest concentration with a gene induction above 1.5 fold, the cellular viability is above 70%.
(iii) There is an apparent overall dose-response for luciferase induction, which is similar between the repetitions.

KeratinoSens cells = experiment: KeratinoSens assay: cytotoxicity / cellular viability; type: cell-based; settings: 48 h incubation; read-out: Concentration for 50% Cytotoxicity
Protocol: as §1, with “fulfilled: […]” for “fulfilled:”

[2] = Enzymatic hydrolysis (stability) in human liver S9 fractions; type: in vitro ADME; settings: 100 μM compound, human liver S9 0.166 mg/ml, phosphate buffer pH 7.4, active S9 fractions
Protocol: Enzymes of the nasal cavity are not easily available, but the nasal cavity contains similar enzymatic activities as found in the liver, namely carboxylesterases (J. L. Lewis, K. J. Nikula, R. Novak, A. R. Dahl, Anat Rec 1994, 239). Therefore the different compounds of examples 1-3 were compared for enzymatic hydrolysis using human liver […]. Chemicals were dissolved to a final concentration of 100 μM in a total volume of 600 μl of phosphate buffer (100 mM, pH 7.4, containing 1.15% potassium chloride and 1 mM of EDTA). S9 fractions from humans at a final level of 0.166 mg/ml were added (Corning® Gentest™ Human Liver S9 Pooled Donors, 20 mg/mL protein content, Product #452961;), Lot 22877,). As control experiment, equal levels of heat inactivated S9 fractions (incubated for 10 min at 99° C.) were added to parallel samples. The samples were incubated for different time periods and then mixed in 2 ml glass vials with 300 μl of Methyl-tert-butylether (MTBE) containing as internal standard 1 ppm of dodecane. Samples were extracted on a vortex mixer for 20 s, and then ca. 200 μl of the supernatant was transferred to conical GC vials and concentrated under a stream of nitrogen. 1 μl of these concentrated extracts were then injected with a splitless injection into an Agilent GC 6890N gas chromatograph equipped with a flame-ionisation detector. The following GC conditions were applied: Column: Rtx −5; 30 m length×0.32 mm internal diameter×0.25 μm film thickness; Carrier gas: Hydrogen; Column flow: 2 mL; Initial temperature of 60° C. held for 2 min, subsequent linear gradient with 10° C. per minute up to a temperature of 240° C. […] To determine calibration curves, dilutions of the test chemicals or of the potentially released alcohols were added to heat inactivated S9 fraction and extracted, concentrated and analysed as described above. All concentrations (in test samples and calibration curves) were determined by normalization to the internal standard. […]

[3] = KeratinoSens assay: cytotoxicity / cellular viability; type: cell-based; settings: human; 48 h incubation; read-out: Concentration for 50% Cytotoxicity
Protocol: as §1, with “fulfilled: […]” for “fulfilled:”

[4] = system: test peptide Cor1C-420 (Ac-NKKCDLF); experiment: Peptide reactivity assay (kinetic variant of DPRA, LC-MS); settings: 1 mM test chemical, 0.1 mM peptide, 37° C.
Protocol: A second method to determine allergenic potential of chemicals is the DPRA direct peptide assay (OECD TG 442c). It is based on the fact that allergenic chemicals must react with a peptide/protein in order to be immunogenic.
A peptide reactivity assay (A. Natsch, H. Gfeller, Toxicol. Sci. 2008, 106, 464-478) was conducted similarly to the DPRA assay, but including a kinetic measurement to quantify reactivity: The test chemicals were dissolved to a final concentration of 4 mM in acetonitrile and 250 μl of this solution were added to 2 ml HPLC vials. The test peptide Cor1C-420 with the sequence Ac-NKKCDLF (Genscript Inc., Piscataway, N.J., USA), was dissolved at 0.133 mM in 20 mM phosphate buffer at pH 7.5, and 750 μl of this solution were added to each test vial (final concentrations: 1 mM of test chemical and 0.1 mM of peptide in 25% acetonitrile; ratio 1:10 as in the DPRA assay). The samples were incubated for 1-24 h at 37° C. and at regular intervals they were analysed by LC-MS analysis on a VELOS PRO Mass spectrometer (Thermo SCIENTIFIC, San Jose, Calif., U.S.A.) operated in the ESI(+) mode.
Mass spectra were recorded from 200-2000 amu. […]
Two endpoints are measured with this assay:
a) Depletion of the parent peptide (FIG. 3): The mass of the protonated parent peptide is measured and the corresponding peak integrated (% depletion). […]

SMILES | concentration at which the luciferase gene is induced [1] [µM] | Concentration for 1.5-fold gene induction (EC 1.5 in μM) [1] | Imax (fold maximal gene induction) [1] [fold] | rating of skin sensitization by the KeratinoSens assay [1] | IC50 (KeratinoSens cells) [µM] | cleavage (enzymatic hydrolysis of the ester) by active S9 fractions [2] | IC50 at 48 h [3] [µM] | peptide depletion (consumption of the parent peptide as compared to controls) ([4]; 1-24 h) [%] | lower levels of peptide adducts as compared to Damascone Delta and Damascone gamma ([4]; after 1 h)
C/C=C/C(=O)C1=C(C)CCCC1(C)C [β-Damascone, (2E)-1-(2′,6′,6′-trimethylcyclohex-1′-en-1′-yl)but-2-en-1-one, reference compound] | 4.5 | 4.5 µM | 29.8 | significantly sensitizing compound | 56.7 | – | – | – | –
C/C=C/C(=O)O[C@H]1[C@H](C)CCC[C@@H]1C [Example 3, (1r*,2R*,6S*)-2,6-dimethylcyclohexyl (E)-but-2-enoate] | – | – | – | – | – | 15% | – | – | –
C/C=C/C(=O)OC1[C@H](C)CCC[C@H]1C (relative stereo) [Example 2, (2R*,6R*)-2,6-dimethylcyclohexyl (E)-but-2-enoate] | – | – | – | – | – | completely hydrolysed | – | – | –
C/C=C/C(=O)O[C@H]1[C@@H](C)C=CCC1(C)C (relative stereo) [Example 6a, (1S*,2S*)-2,6,6-Trimethylcyclohex-3-en-1-yl (E)-but-2-enoate] | – | No induction | 1.13 | – | – | – | 89.4 | – | –
C/C=C/C(=O)O[C@@H]1[C@H](C)CCC[C@@H]1C [Example 1, (1s*,2R*,6S*)-2,6-dimethylcyclohexyl (E)-but-2-enoate] | – | No induction | – | non-sensitizing | – | < 3% | 86.9 | < 10 | > 100
